From US9150526B2, “Biaryl-propionic acid derivatives and their use as pharmaceuticals” (SANOFI, priority 2013, dated 2015)

System: Recombinant human cathepsin A
Test: Cathepsin A inhibitory activity (Bodipy FL-bradykinin substrate, microfluidic capillary electrophoresis)
Assay type: biochemical
Details: read-out: CATH A IC50
Procedure: Pharmacological Tests a) Cathepsin a Inhibitory Activity
Recombinant human cathepsin A (residues 29-480, with a C-terminal 10-His tag; R&D Systems, #1049-SE) was proteolytically activated with recombinant human cathepsin L (R&D Systems, #952-CY). Briefly, cathepsin A was incubated at 10 μg/ml with cathepsin L at 1 μg/ml in activation buffer (25 mM 2-(morpholin-4-yl)-ethanesulfonic acid (MES), pH 6.0, containing 5 mM dithiothreitol (DTT)) for 15 min at 37° C.
The activated cathepsin A was diluted in assay buffer (25 mM MES, pH 5.5, containing 5 mM DTT) and mixed with the test compound (dissolved in assay buffer containing (v/v) 3% DMSO) or, in the control experiments, with the vehicle in a multiple assay plate. After incubation for 15 min at room temperature, as substrate then bradykinin carrying an N-terminal ®Bodipy FL (4,4-difluoro-5,7-dimethyl-4-bora-3a,4a-diaza-s-indacene-3-propionyl) label (JPT Peptide Technologies GmbH; dissolved in assay buffer) was added to the mixture. The final concentration of cathepsin A was 833 ng/ml and the final concentration of labeled bradykinin 2 μM. After incubation for 15 min at room temperature the reaction was stopped by the addition of stop buffer (130 mM 2-(4-(2-hydroxy-ethyl)-piperazin-1-yl)-ethanesulfonic acid, pH 7.4, containing (v/v) 0.013% ®Triton X-100, 0.13% Coating Reagent 3 (Caliper Life Sciences), 6.5% DMSO and 20 μM ebelactone B (Sigma, # E0886)).
Uncleaved substrate and product were then separated by a microfluidic capillary electrophoresis on a LabChip® 3000 Drug Discovery System (12-Sipper-Chip; Caliper Life Sciences) and quantified by determination of the respective peak areas. Substrate turnover was calculated by dividing product peak area by the sum of substrate and product peak areas, and the enzyme activity and the inhibitory effect of the test compound thus quantified.

Compound	IC50 [nM]
CCOc1ccccc1-c1cncc(C(CC(=O)O)c2nnc(C)o2)c1 (stereo not shown) [compound 193]	4270
COc1cc(F)ccc1-c1cccc(C(CC(=O)O)c2nnc(C)o2)c1 (stereo not shown) [compound 146]	129
Cc1nnc(C(CC(=O)O)c2cccc(-c3ccccc3OC(F)(F)F)c2)o1 (stereo not shown) [compound 148]	243
COc1ccc(C)cc1-c1cccc(C(CC(=O)O)c2ncc(C)s2)c1 (stereo not shown) [compound 53]	85
COc1cc(F)ccc1-c1cccc(C(CC(=O)O)c2nccs2)c1 (stereo not shown) [compound 37]	503
COc1ccc(S(C)(=O)=O)cc1-c1cc(Cl)cc(C(CC(=O)O)c2nnc(C)o2)c1 (stereo not shown) [compound 170]	109
COc1ccc(C)cc1-c1cncc(C(CC(=O)O)c2nnc(C)o2)c1 (stereo not shown) [compound 181]	2220
COc1ccc(C(C)(C)C)cc1-c1cccc(C(CC(=O)O)c2nc(C)c(C)s2)c1 (stereo not shown) [compound 18]	530
COc1ccc(OC)c(-c2cccc(C(CC(=O)O)c3nccs3)c2)c1 (stereo not shown) [compound 21]	129
COc1cccc(C#N)c1-c1cccc(C(CC(=O)O)c2nnc(C)o2)c1 (stereo not shown) [compound 152]	652
COc1cccc(Cl)c1-c1cc(F)cc(C(CC(=O)O)c2ncc(C)s2)c1 (stereo not shown) [compound 105]	96
COc1cc(C(N)=O)ccc1-c1cccc(C(CC(=O)O)c2nccs2)c1 (stereo not shown) [compound 45]	1380
CC(C)Oc1ccccc1-c1cccc(C(CC(=O)O)c2nccs2)c1 (stereo not shown) [compound 35]	409
COc1ccccc1-c1cc(F)cc(C(CC(=O)O)c2ncc(C)s2)c1 (stereo not shown) [compound 110]	116
COc1c(C)cccc1-c1cccc(C(CC(=O)O)c2nccs2)c1 (stereo not shown) [compound 40]	844
COc1cccc(CO)c1-c1cc(Cl)cc(C(CC(=O)O)c2ncc(C)s2)c1 (stereo not shown) [compound 82]	52
O=C(O)CC(c1cccc(-c2ccccc2OC(F)(F)F)c1)c1nccs1 (stereo not shown) [compound 43]	1230
COc1ccc(Cl)cc1-c1cc(F)cc(C(CC(=O)O)c2nnc(C)o2)c1 (stereo not shown) [compound 166]	89
COc1ccccc1-c1cccc(C(CC(=O)O)c2nnc(C)o2)c1 (stereo not shown) [compound 140]	61
COc1ccc(OC)c(-c2cncc(C(CC(=O)O)c3nnc(C)o3)c2)c1 (stereo not shown) [compound 180]	3520
COc1ccc(C)cc1-c1cccc(C(CC(=O)O)c2nccs2)c1 (stereo not shown) [compound 24]	147

The remaining compounds from weak to strong by IC50, led by results:

IC50 [nM]	Compound
51	COc1ccc(OC(F)(F)F)cc1-c1cc(C(CC(=O)O)c2nnc(C)o2)cc(C(F)(F)F)c1 (stereo not shown) [compound 213]
49	COc1cc(C)cc(OC)c1-c1cccc(C(CC(=O)O)c2ncco2)c1 (stereo not shown) [compound 16]
44	COc1cc(C)cc(OC)c1-c1cccc(C(CC(=O)O)c2ncc(C)s2)c1 (stereo not shown) [compound 15]
35	COc1cc(F)ccc1-c1cc(C(CC(=O)O)c2nnc(C)o2)cc(C(F)(F)F)c1 (stereo not shown) [compound 200]
30	COc1cccc(OC)c1-c1cccc(C(CC(=O)O)c2nccs2)c1 (stereo not shown) [compound 20]
19	COc1cc(C)cc(OC)c1-c1cc(Cl)cc(C(CC(=O)O)c2ncc(C)s2)c1 (stereo not shown) [compound 74]
17	COc1ccc(C)cc1-c1cc(C(CC(=O)O)c2nnc(C)o2)cc(C(F)(F)F)c1 (stereo not shown) [compound 202]
17	COc1ccc(Cl)cc1-c1cc(C(CC(=O)O)c2nnc(C)o2)cc(C(F)(F)F)c1 (stereo not shown) [compound 209]
17	COc1cccc(Cl)c1-c1cc(C(CC(=O)O)c2nnc(C)o2)cc(C(F)(F)F)c1 (stereo not shown) [compound 214]
12	COc1ccc(F)cc1-c1cc(C(CC(=O)O)c2nnc(C)o2)cc(C(F)(F)F)c1 (stereo not shown) [compound 218]
10	COc1ccccc1-c1cc(Cl)cc(C(CC(=O)O)c2nnc(C)o2)c1 (stereo not shown) [compound 176]
10	COc1ccc2c(c1-c1cc(C(CC(=O)O)c3nnc(C)o3)cc(C(F)(F)F)c1)OC(C)(C)C2 (stereo not shown) [compound 207]
2	COc1cccc(OC)c1-c1cc(C(CC(=O)O)c2nnc(C)o2)cc(C(F)(F)F)c1 (stereo not shown) [compound 205]
